Source: patent publication US12441733B2, “Substituted 2,4-dioxotetrahydropyrimidines as intermediates in the synthesis of bruton's tyrosine kinase inhibitors” (Novartis AG, priority 2018, dated 2025)
Read-outs that look alike come from different tables or passages of the source.

Key:
Format in all cases: cell-based
OCI-LY3 cells = experiment: Resazurin cell viability (proliferation) assay in OCI-LY3 DLBCL cells; settings: OCI-LY3 cells (BTK independent), 72 h, 50% growth inhibition vs vehicle, read-out: OCI-LY3 Prol GI50
Summary of the method: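 Cells were seeded at 1×10^4 per well and dosed 3 h later: 8-point 1:4 dilutions from 10 μM (OCI-LY3), in triplicate, 72 h at 37 °C. Resazurin (13 μg/ml final) was added for the last 2 h and fluorescence read at 530/600 nm. GI50 is relative to DMSO vehicle, typically from ≥2 independent experiments.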

TMD8 cells = experiment: Resazurin cell viability (proliferation) assay in TMD8 DLBCL cells; settings: TMD8 cells (BTK dependent), 72 h, 50% growth inhibition vs vehicle, read-out: TMD8 Prol GI50
Summary of the method: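 TMD8 cells were seeded at 1×10^4 per well and treated 3 h later with compound, in an 8-point 1:4 dilution series starting at 1 μM, or DMSO, for 72 h at 37° C. Resazurin was added at 13 μg/ml final for the last 2 h, and fluorescence was read at ex 530/em 600 nm. GI50 versus vehicle was derived by curve fitting from triplicates.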

BTK-GFP = molecular target: T1, BTK-GFP (Homo sapiens, UniProt Q06187+Q96SW2); experiment: BTK-GFP protein abundance flow cytometry assay in HEK293A cells; settings: HEK293A BTK-GFP-iresRFP cells, 24 h; for DC50: GFP signal by flow cytometry, concentration at which 50% maximal degradation was observed; for BTK deg Amax: % protein remaining at the concentration at which maximum degradation is seen
T1 construct: expressed in transfected cells; host or cells: HEK293A (Invitrogen R70507), lentiviral transduction with pLenti6-BTK-GFP-Ires-RFP, blasticidin selection
T1 sequence (Q06187 whole entry): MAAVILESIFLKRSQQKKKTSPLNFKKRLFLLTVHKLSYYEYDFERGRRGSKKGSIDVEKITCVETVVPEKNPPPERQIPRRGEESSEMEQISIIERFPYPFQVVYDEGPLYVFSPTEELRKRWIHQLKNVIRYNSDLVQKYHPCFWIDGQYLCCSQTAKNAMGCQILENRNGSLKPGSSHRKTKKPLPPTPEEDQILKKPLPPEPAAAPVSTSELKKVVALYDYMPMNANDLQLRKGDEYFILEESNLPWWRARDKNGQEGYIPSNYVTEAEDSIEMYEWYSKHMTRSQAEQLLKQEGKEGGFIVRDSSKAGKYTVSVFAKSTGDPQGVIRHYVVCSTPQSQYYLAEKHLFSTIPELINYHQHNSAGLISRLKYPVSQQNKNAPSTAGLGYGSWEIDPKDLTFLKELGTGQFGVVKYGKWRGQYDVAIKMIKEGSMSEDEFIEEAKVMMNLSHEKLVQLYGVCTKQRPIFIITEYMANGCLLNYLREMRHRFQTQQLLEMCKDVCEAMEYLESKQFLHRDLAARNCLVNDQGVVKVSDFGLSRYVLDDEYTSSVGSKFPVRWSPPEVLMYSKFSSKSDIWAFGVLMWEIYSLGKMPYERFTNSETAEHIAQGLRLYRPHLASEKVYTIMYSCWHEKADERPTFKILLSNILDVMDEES
T1 sequence (Q96SW2 whole entry): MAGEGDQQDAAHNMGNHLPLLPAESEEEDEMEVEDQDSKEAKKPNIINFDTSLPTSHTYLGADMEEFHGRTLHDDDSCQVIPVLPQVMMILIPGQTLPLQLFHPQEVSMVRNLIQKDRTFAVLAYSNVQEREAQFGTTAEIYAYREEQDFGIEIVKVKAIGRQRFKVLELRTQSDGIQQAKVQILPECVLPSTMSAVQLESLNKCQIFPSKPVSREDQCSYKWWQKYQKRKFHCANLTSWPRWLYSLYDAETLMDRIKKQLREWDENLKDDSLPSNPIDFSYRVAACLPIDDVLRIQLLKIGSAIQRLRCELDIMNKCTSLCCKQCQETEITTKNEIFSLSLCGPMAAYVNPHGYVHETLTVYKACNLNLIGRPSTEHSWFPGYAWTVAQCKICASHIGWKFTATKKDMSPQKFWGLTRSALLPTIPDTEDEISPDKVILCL
T1 sequence (Q16531 whole entry partner): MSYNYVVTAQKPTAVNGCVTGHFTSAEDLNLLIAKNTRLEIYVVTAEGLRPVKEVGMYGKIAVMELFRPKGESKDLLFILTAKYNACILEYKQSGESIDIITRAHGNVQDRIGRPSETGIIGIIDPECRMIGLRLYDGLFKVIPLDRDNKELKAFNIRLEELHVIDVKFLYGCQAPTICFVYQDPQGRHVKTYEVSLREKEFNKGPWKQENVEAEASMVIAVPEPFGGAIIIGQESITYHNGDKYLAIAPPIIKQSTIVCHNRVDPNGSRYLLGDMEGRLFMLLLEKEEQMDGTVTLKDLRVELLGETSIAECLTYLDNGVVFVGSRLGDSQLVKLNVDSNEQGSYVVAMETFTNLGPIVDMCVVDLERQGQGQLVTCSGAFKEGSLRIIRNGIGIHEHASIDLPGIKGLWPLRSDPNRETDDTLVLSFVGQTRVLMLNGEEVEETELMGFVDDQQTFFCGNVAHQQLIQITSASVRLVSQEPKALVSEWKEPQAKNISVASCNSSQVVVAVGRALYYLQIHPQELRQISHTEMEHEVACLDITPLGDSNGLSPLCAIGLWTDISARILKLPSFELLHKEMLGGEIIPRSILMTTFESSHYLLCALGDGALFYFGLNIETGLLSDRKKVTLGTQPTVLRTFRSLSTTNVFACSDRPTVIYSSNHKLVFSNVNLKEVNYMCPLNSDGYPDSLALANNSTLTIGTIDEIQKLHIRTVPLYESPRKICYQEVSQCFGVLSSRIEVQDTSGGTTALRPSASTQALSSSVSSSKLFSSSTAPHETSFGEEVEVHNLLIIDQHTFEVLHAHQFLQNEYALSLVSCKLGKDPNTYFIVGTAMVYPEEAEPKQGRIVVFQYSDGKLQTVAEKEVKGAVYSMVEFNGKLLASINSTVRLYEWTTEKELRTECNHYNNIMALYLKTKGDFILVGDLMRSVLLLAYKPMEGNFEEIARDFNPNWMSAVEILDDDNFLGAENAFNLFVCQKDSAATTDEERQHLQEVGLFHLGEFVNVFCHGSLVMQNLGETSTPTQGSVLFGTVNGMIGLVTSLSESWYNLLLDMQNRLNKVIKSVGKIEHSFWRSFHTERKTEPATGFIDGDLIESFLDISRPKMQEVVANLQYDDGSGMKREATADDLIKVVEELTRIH
Summary of the method: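 HEK293A cells stably expressing bicistronic BTK-GFP-IRES-RFP (C-terminal GFP tag) via lentiviral vector. Degradation read by flow cytometry as loss of GFP signal after degrader treatment. DC50 is concentration giving 50% maximal degradation; Amax is % protein remaining at maximal degradation.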

Row | SMILES | GI50 (OCI-LY3 cells; Homo sapiens) [nM] | DC50 (BTK-GFP) [nM] | BTK deg Amax (BTK-GFP) [%] | GI50 (TMD8 cells; Homo sapiens) [nM] | GI50 (OCI-LY3 cells) [nM] | GI50 (TMD8 cells) [nM]
1 | COc1ccc(C(=O)N2CCN(CCN3CCC(COc4ccc(-c5cc6c(-c7cc(F)cc(NC(=O)c8ccc(C(C)(C)O)cc8F)c7C)ncnc6[nH]5)cc4)CC3)CC2)cc1N1CCC(=O)NC1=O [Compound 51, N-(3-(6-(4-((1-(2-(4-(3-(2,4-dioxotetrahydropyrimidin-1(2H)-yl)-4-methoxybenzoyl)piperazin-1-yl)ethyl)piperidin-4-yl)methoxy)phenyl)-7H-pyrrolo[2,3-d]pyrimidin-4-yl)-5-fluoro-2-methylphenyl)-2-fluoro-4-(2-hydroxypropan-2-yl)benzamide] | 4370 | 0.8 | 3.9 | 0.58 |  | 
2 | COc1ccc(C(=O)N2CCC(O[C@H]3CC[C@H](OCc4ccc(-c5cc6c(-c7cc(F)cc(NC(=O)c8ccc(C(C)(C)O)cc8F)c7C)ncnc6[nH]5)cc4)CC3)CC2)cc1N1CCC(=O)NC1=O [Compound 56, N-(3-(6-(4-((((1r,4r)-4-((1-(3-(2,4-dioxotetrahydropyrimidin-1(2H)-yl)-4-methoxybenzoyl)piperidin-4-yl)oxy)cyclohexyl)oxy)methyl)phenyl)-7H-pyrrolo[2,3-d]pyrimidin-4-yl)-5-fluoro-2-methylphenyl)-2-fluoro-4-(2-hydroxypropan-2-yl)benzamide] |  | 4 | 4.4 |  | 6340 | 15.4
3 | COc1ccc(C(=O)N2CCC(O[C@H]3CC[C@@H](Oc4ccc(-c5cc6c(-c7cc(F)cc(NC(=O)c8ccc(C(C)(C)O)cc8F)c7C)ncnc6[nH]5)cc4)CC3)CC2)cc1N1CCC(=O)NC1=O [Compound 54, N-(3-(6-(4-(((1s,4s)-4-((1-(3-(2,4-dioxotetrahydropyrimidin-1(2H)-yl)-4-methoxybenzoyl)piperidin-4-yl)oxy)cyclohexyl)oxy)phenyl)-7H-pyrrolo[2,3-d]pyrimidin-4-yl)-5-fluoro-2-methylphenyl)-2-fluoro-4-(2-hydroxypropan-2-yl)benzamide] |  | 1.5 | 4.4 |  | > 10000 | 3.56
4 | Cc1c(NC(=O)c2ccc(C(C)(C)O)cc2F)cc(F)cc1-c1ncnc2[nH]c(-c3ccc(CN4CCC5(CC4)CN(CCCNC(=O)c4ccc(Cl)c(N6CCC(=O)NC6=O)c4)CCO5)cc3)cc12 [Compound 48, N-(3-(6-(4-((4-(3-(4-chloro-3-(2,4-dioxotetrahydropyrimidin-1(2H)-yl)benzamido)propyl)-1-oxa-4,9-diazaspiro[5.5]undecan-9-yl)methyl)phenyl)-7H-pyrrolo[2,3-d]pyrimidin-4-yl)-5-fluoro-2-methylphenyl)-2-fluoro-4-(2-hydroxypropan-2-yl)benzamide] | 3600 | 20.8 | 9.4 | 2.23 |  | 
5 | COc1ccc(C(=O)N2CCN(CCNCCCOCc3ccc(-c4cc5c(-c6cc(F)cc(NC(=O)c7ccc(C(C)(C)O)cc7F)c6C)ncnc5[nH]4)cc3)CC2)cc1N1CCC(=O)NC1=O [Compound 45, N-(3-(6-(4-((3-((2-(4-(3-(2,4-dioxotetrahydropyrimidin-1(2H)-yl)-4-methoxybenzoyl)piperazin-1-yl)ethyl)amino)propoxy)methyl)phenyl)-7H-pyrrolo[2,3-d]pyrimidin-4-yl)-5-fluoro-2-methylphenyl)-2-fluoro-4-(2-hydroxypropan-2-yl)benzamide] | > 10000 | 284 | 3.2 | 19.1 |  | 
6 | COc1ccc(C(=O)N2CCC3(CCN(Cc4ccc(-c5cc6c(-c7cc(F)cc(NC(=O)c8ccc(C(C)(C)O)cc8F)c7C)ncnc6[nH]5)cc4)CC3CO)CC2)cc1N1CCC(=O)NC1=O (racemic) [Compound 23, rac-N-(3-(6-(4-((9-(3-(2,4-Dioxotetrahydropyrimidin-1(2H)-yl)-4-methoxybenzoyl)-1 (hydroxymethyl)-3,9-diazaspiro[5.5]undecan-3-yl)methyl)phenyl)-7H-pyrrolo[2,3-d]pyrimidin-4-yl)-5-fluoro-2-methylphenyl)-2-fluoro-4-(2-hydroxypropan-2-yl)benzamide] | > 10000 | 46.8 | 10.4 | 5.35 |  | 
7 | COc1ccc(C(=O)N2CCC(C(=O)N3CCN(Cc4ccc(-c5cc6c(-c7cc(F)cc(NC(=O)c8ccc(C(C)(C)O)cc8F)c7C)ncnc6[nH]5)cc4)CC3)CC2)cc1N1CCC(=O)NC1=O [Compound 33, N-(3-(6-(4-((4-(1-(3-(2,4-dioxotetrahydropyrimidin-1(2H)-yl)-4-methoxybenzoyl)piperidine-4-carbonyl)piperazin-1-yl)methyl)phenyl)-7H-pyrrolo[2,3-d]pyrimidin-4-yl)-5-fluoro-2-methylphenyl)-2-fluoro-4-(2-hydroxypropan-2-yl)benzamide] | 4280 | 22.2 | 5.9 | 3.97 |  | 
8 | COc1ccc(C(=O)N2CC3(CCN(Cc4ccc(-c5cc6c(-c7cc(F)cc(NC(=O)c8ccc(C(C)(C)O)cc8F)c7C)ncnc6[nH]5)cc4)CC3)C2)cc1N1CCC(=O)NC1=O [Compound 32] | 7440 | 34.2 | 15.4 | 6.31 |  | 
9 | COc1ccc(C(=O)N2CCC(O[C@H]3CC[C@@H](OCc4ccc(-c5cc6c(-c7cc(F)cc(NC(=O)c8ccc(C(C)(C)O)cc8F)c7C)ncnc6[nH]5)cc4)CC3)CC2)cc1N1CCC(=O)NC1=O [Compound 41, N-(3-(6-(4-((((1s,4s)-4-((1-(3-(2,4-dioxotetrahydropyrimidin-1(2H)-yl)-4-methoxybenzoyl)piperidin-4-yl)oxy)cyclohexyl)oxy)methyl)phenyl)-7H-pyrrolo[2,3-d]pyrimidin-4-yl)-5-fluoro-2-methylphenyl)-2-fluoro-4-(2-hydroxypropan-2-yl)benzamide] |  | 12.4 | 4.4 |  | > 10000 | 17.5

More lines, main results first:

Row | GI50 (OCI-LY3 cells; Homo sapiens) [nM] | DC50 (BTK-GFP) [nM] | BTK deg Amax (BTK-GFP) [%] | SMILES | GI50 (TMD8 cells; Homo sapiens) [nM] | GI50 (OCI-LY3 cells) [nM] | GI50 (TMD8 cells) [nM]
10 | 6120 | 0.7 | 3.3 | COc1ccc(C(=O)N2CCC(CN3CCN(Cc4ccc(-c5cc6c(-c7cc(F)cc(NC(=O)c8ccc(C(C)(C)O)cc8F)c7C)ncnc6[nH]5)cc4)CC3)CC2)cc1N1CCC(=O)NC1=O [Compound 7, N-(3-(6-(4-((4-((1-(3-(2,4-Dioxotetrahydropyrimidin-1(2H)-yl)-4-methoxybenzoyl)piperidin-4-yl)methyl)piperazin-1-yl)methyl)phenyl)-7H-pyrrolo[2,3-d]pyrimidin-4-yl)-5-fluoro-2-methylphenyl)-2-fluoro-4-(2-hydroxypropan-2-yl)benzamide] | 0.39 |  | 
11 | > 10000 | 26.2 | 4.2 | COc1ccc(C(=O)N2CCC3(CCN(Cc4ccc(-c5cc6c(-c7cc(F)cc(NC(=O)c8ccc(C(C)(C)O)cc8F)c7C)ncnc6[nH]5)cc4)CC3)C(CO)C2)cc1N1CCC(=O)NC1=O (racemic) [Compound 1, rac-N-(3-(6-(4-((9-(3-(2,4-Dioxotetrahydropyrimidin-1(2H)-yl)-4-methoxybenzoyl)-7-(hydroxymethyl)-3,9-diazaspiro[5.5]undecan-3-yl)methyl)phenyl)-7H-pyrrolo[2,3-d]pyrimidin-4-yl)-5-fluoro-2-methylphenyl)-2-fluoro-4-(2-hydroxypropan-2-yl)benzamide] | 3.89 |  | 
12 | 4400 | 14.4 | 8.9 | Cc1c(NC(=O)c2ccc(C(C)(C)O)cc2F)cc(F)cc1-c1ncnc2[nH]c(-c3ccc(CN4CCC5(CCN(CCCNC(=O)c6ccc(Cl)c(N7CCC(=O)NC7=O)c6)CC5)CC4)cc3)cc12 [Compound 57, N-(3-(6-(4-((9-(3-(4-chloro-3-(2,4-dioxotetrahydropyrimidin-1(2H)-yl)benzamido)propyl)-3,9-diazaspiro[5.5]undecan-3-yl)methyl)phenyl)-7H-pyrrolo[2,3-d]pyrimidin-4-yl)-5-fluoro-2-methylphenyl)-2-fluoro-4-(2-hydroxypropan-2-yl)benzamide] | 1.16 |  | 
13 | > 10000 | 150 | 17.4 | COc1ccc(C(=O)NCCN2CCC3(CCN(Cc4ccc(-c5cc6c(-c7cc(F)cc(NC(=O)c8ccc(C(C)(C)O)cc8F)c7C)ncnc6[nH]5)cc4)CC3)C2)cc1N1CCC(=O)NC1=O [Compound 53, N-(3-(6-(4-((2-(2-(3-(2,4-dioxotetrahydropyrimidin-1(2H)-yl)-4-methoxybenzamido)ethyl)-2,8-diazaspiro[4.5]decan-8-yl)methyl)phenyl)-7H-pyrrolo[2,3-d]pyrimidin-4-yl)-5-fluoro-2-methylphenyl)-2-fluoro-4-(2-hydroxypropan-2-yl)benzamide] | 3.14 |  | 
